# Reference: patent US20140363379A1, “NUTRITIONAL APPROACH TO THE USE OF ERGOTHIONEINE AND VITAMIN D2 FOR HAIR, NAIL AND SKIN GROWTH” (ENTIA BIOSCIENCES, INC., priority 2011, published 2014)
# Assays:
# [1] = humans, after mushroom consumption (0 g, 8 g, 16 g doses); cited from earlier work
# glutathione = test: Glutathione levels in plasma, cortex and midbrain of Parkinson's model mice, by glutathione assay; assay type: in vivo, mouse; details: compared with knockout mice
# Method: Matched cohorts of SNCA transgenic mouse model of PD were used to measure the therapeutic efficacy of ErgoD2™ to control movement disorder, improve grip strength, and lower alpha-synuclein in the cortex and/or midbrain of the PD animals. Additionally, alpha-synuclein was measured in the plasma, and glutathione was measured in the plasma, cortex and midbrain. IL-6 measurements and an immunohistochemistry study will also be performed on intestinal tissues to see if there are pathologic variances in intestinal function between cohorts, which could be associated with disease onset and progression.
# Concentrations of glutathione present in midbrain homogenates (nM), as measured by glutathione assay.
# Concentrations of glutathione present in cortex homogenates (nM), as measured by glutathione assay. Error bars represent±standard error. Glutathione is a major protective antioxidant in animal cells. It is present most abundantly in its reduced form (GSH) in healthy cells. The levels of GSH and glutathione disulfide (GSSG), the oxidized form, are used as indicators of oxidative stress and overall cell health. One of the well-established markers of PD is a decrease in glutathione levels in the substantia nigra (SN). This decrease is specific to the SN and is not observed in other sections of the PD brain.
# insulin resistance = details: cited from earlier work
compound,measurement,setting,value
C[N+](C)(C)[C@@H](Cc1c[nH]c(=S)[nH]1)C(=O)[O-] [L-Ergothioneine],time of peak of ET in red blood cells (RBC),[1],2 h
"CC(=O)N[C@@H](CS)C(=O)O [NAC, n-acetyl cysteine]","cortex glutathione concentration, treated transgenic versus knockout mice",glutathione,no significant differences
vitamin D,improvement of insulin resistance,insulin resistance; bringing 25(OH)D levels above 80 nmol/L,12%
same,improvement in insulin sensitivity,insulin resistance; increasing vitamin D levels from 25 to 75 nmol/L,60%
